Test results: PubChem BioAssay (NCI)
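Cultured in 96-well plates, cells were exposed to test compound for 48 hours across five concentrations. At the TGI there is no net growth.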

How the values were obtained:
Experiment in all cases: NCI tumour cell line growth inhibition, 48 h
[1] = test system: RXF-631 renal
[2] = test system: M19-MEL melanoma
[3] = test system: DMS 273 small cell lung
[4] = test system: SN12K1 renal
[5] = test system: P388 leukemia
[6] = test system: P388/ADR leukemia
[7] = test system: HOP-18 NSCLC

For O=C1Nc2cc([N+](=O)[O-])c(Br)cc2C1=O, the TGI [1] was 33.2 µM, the TGI [2] was 31.6 µM and the TGI [3] was 37.3 µM.
COc1ccc2c(c1)OCCc1cn[nH]c1-2 was tested, and the TGI [4] was > 100 µM, the TGI [5] was > 100 µM and the TGI [2] was > 100 µM. For the same molecule, the TGI [3] was > 100 µM, the TGI [6] was > 100 µM and the TGI [7] was > 100 µM.
CC(=O)NNc1nc(C)c(C(=O)NNC(=O)C(=O)Nc2cccc(C(C)=O)c2)s1 was tested, and the TGI [1] was 68.3 µM, the TGI [2] was 43.5 µM and the TGI [3] was > 100 µM.
Cc1ccc(Sc2ccccc2[N+](=O)[O-])cc1 was tested, and the TGI [2] was > 100 µM, the TGI [3] was 82.5 µM and the TGI [7] was > 100 µM.
With COc1ccc2nc3c(c(NCCCN(C)C)c2c1)CCCC3 the TGI [1] was 28.7 µM, the TGI [2] was 31 µM and the TGI [3] was 24.8 µM.
In the case of C[S+](C)CC1OC(n2cnc3c(N)ncnc32)C(O)C1O (stereo unspecified), the TGI [4] is reported as > 225 µM, the TGI [5] is reported as > 225 µM and the TGI [2] is reported as > 225 µM. The TGI [3] was > 225 µM and the TGI [6] was > 22.5 µM.
In the case of CCOC(=O)c1cc2c(OCc3ccccc3)c(OC)cc3c2c(n1)N(c1ccc(OC)cc1)C(C)C3 (stereo unspecified), the TGI [2] is reported as > 50 µM, the TGI [3] is reported as > 50 µM and the TGI [7] is reported as > 50 µM.
With CC1(C)C2CCC3(OCCO3)C1C(O)C2 (stereo unspecified) the TGI [1] was > 100 µM, the TGI [2] was > 100 µM and the TGI [3] was > 100 µM. For the same molecule, the TGI [7] was > 100 µM.
Molecule COc1cccc(/C(Cl)=C(\C=O)c2cccc(OC)c2)c1 has a TGI [2] of 29 µM, a TGI [3] of 28.5 µM and a TGI [7] of 41.9 µM.
In the case of CCOC(=O)CCC1(C(=O)OCC)CCCC1=O (stereo unspecified), the TGI [1] is reported as > 100 µM, the TGI [2] is reported as > 100 µM and the TGI [3] is reported as > 100 µM. The TGI [7] was > 100 µM.
With Cc1ccc(N(O)C(C)(C)C)cc1 the TGI [4] was > 100 µM, the TGI [5] was > 100 µM and the TGI [2] was > 100 µM. The TGI [3] was > 100 µM, the TGI [6] was > 100 µM and the TGI [7] was > 100 µM.
For Cc1cn(C2CC(CCCO)C(CO)O2)c(=O)[nH]c1=O (stereo unspecified), the TGI [2] was > 100 µM and the TGI [3] was > 100 µM.
For CC(C)OP(=O)(OC(C)C)C1=NN(c2ccc([N+](=O)[O-])cc2)C(P(=O)(OC(C)C)OC(C)C)=NN1c1ccc([N+](=O)[O-])cc1, the TGI [2] was > 100 µM, the TGI [3] was > 100 µM and the TGI [7] was > 100 µM.
Cc1cccc2c1c1ccc3c(c1n2C)C(=O)C=CC3=O was tested, and the TGI [1] was 49.6 µM, the TGI [2] was 14.9 µM and the TGI [3] was 8.3 µM. For the same molecule, the TGI [7] was 23.9 µM.
CCOC(=O)C(C)Sc1nnc(COc2ccccc2OC)n1-c1ccccc1 (stereo unspecified) was tested, and the TGI [2] was > 100 µM, the TGI [3] was > 100 µM and the TGI [7] was > 100 µM.
COC(=O)CC(C(C(=O)OCc1ccccc1)C(C)O)N1C(=O)OC(c2ccccc2)C1c1ccccc1 (stereo unspecified) was tested, and the TGI [1] was > 100 µM, the TGI [2] was > 100 µM and the TGI [3] was > 100 µM.
CCSCN(C)c1nc(N(C)C)nc(N(C)C)n1 was tested, and the TGI [2] was > 100 µM, the TGI [3] was > 100 µM and the TGI [7] was > 100 µM.
CCCc1c(C(=O)OCC)[nH]c(-c2ccc(-c3[nH]c(C(=O)OCC)c(CCC)c3C(=O)OCC)s2)c1C(=O)OCC was tested, and the TGI [2] was > 100 µM, the TGI [3] was > 100 µM and the TGI [7] was > 100 µM.
For COc1cc(C2C(Cl)C(=O)N2NC(=O)c2ccc(NC(C)=O)cc2)ccc1O (stereo unspecified), the TGI [2] was > 100 µM and the TGI [3] was > 100 µM.
CN(C)CCNC(=O)c1cccc2cc3cc(O)ccc3nc12 was tested, and the TGI [4] was 2.66 µM, the TGI [5] was 1.25 µM and the TGI [2] was 3.68 µM. It also gave a TGI [3] of 2.52 µM, a TGI [6] of 2.33 µM and a TGI [7] of 3.83 µM.
O=NN(CCF)C(=O)NC1CC2CCC1C2 (stereo unspecified) was tested, and the TGI [4] was > 100 µM, the TGI [5] was 50.3 µM and the TGI [2] was > 100 µM. The TGI [3] was > 100 µM, the TGI [6] was > 100 µM and the TGI [7] was > 100 µM.
O=c1c2ccccc2nc(-c2ccccc2)n1NC(=S)Nc1ccc(Cl)cc1 was tested, and the TGI [2] was > 100 µM, the TGI [3] was > 100 µM and the TGI [7] was > 100 µM.
